Measured values published in US11903987B2, “Artificial compositions comprising corosolic acid, oleanolic acid; and ursolic acid in a form of an emulsion, salve, ointment, suspension, or gel” (National Guard Health Affairs, priority 2018, dated 2024).

Tests used:
[1] = skin tolerability on tested subjects after topical application; format: in vivo, human
[2] = tested on: human skin warts; assay: topical treatment of human skin warts; format: in vivo; settings: topical application
Method: Initial steps involved extracting Tecoma stans leaves with methanol or ethanol alcohol. Then, the extract was obtained via evaporating the alcohol and re-suspending the dry matter in pure DMSO (dimethylsulphoxide) at a concentration of 20 mg/mL DMSO. […] As disclosed herein, 14 compounds have been isolated from dry leaves of Tecoma stans, four of which are known for their antidiabetic effect and ability to reduce the glycemic index. After identifying the 14 compounds in the methanolic extract from the dry leaves, each compound was independently tested on human skin warts. […] Therefore, corosolic acid was mixed with its two related compounds, namely oleanolic acid (FIG. 1E) and ursolic acid (FIG. 1F), isolated from the same extract. Compositions containing a mixture of these three compounds were prepared by mixing the compounds in an ointment at a concentration of 1 mg/gm of each compound per a total weight of the ointment, emulsifying the compounds in a lotion base at a concentration of 0.1 mg/mL of each compound per a total volume of the lotion, or suspending three compounds together in DMSO at a concentration of 1 mg/mL of each compound per a total volume of DMSO. The compositions were applied topically twice a day to the desired skin area as indicated in each case (see FIGS. 3[…]).

SMILES | harmlessness on humans / skin irritation [1] | curing effect on skin warts [2]
C[C@H]1[C@H](C)CC[C@]2(C(=O)O)CC[C@]3(C)C(=CC[C@@H]4[C@@]5(C)C[C@@H](O)[C@H](O)C(C)(C)[C@@H]5CC[C@]43C)[C@H]12 [corosolic acid, (2α,3β)-2,3-dihydroxyurs-12-en-28-oic acid] | harmless on humans, and cause no skin irritations | minor curing effect
CC1(C)CC[C@]2(C(=O)O)CC[C@]3(C)C(=CC[C@@H]4[C@@]5(C)CC[C@H](O)C(C)(C)[C@@H]5CC[C@]43C)[C@@H]2C1 [oleanolic acid] | harmless on humans, and cause no skin irritations | 
C[C@H]1[C@H](C)CC[C@]2(C(=O)O)CC[C@]3(C)C(=CC[C@@H]4[C@@]5(C)CC[C@H](O)C(C)(C)[C@@H]5CC[C@]43C)[C@H]12 [ursolic acid, 3β-Hydroxy-12-ursen-28-ic acid] | harmless on humans, and cause no skin irritations | 
